Data: ChEMBL document CHEMBL1671861, “Preclinical evaluation of 1H-benzylindole derivatives as novel human immunodeficiency virus integrase strand transfer inhibitors” (Antimicrob Agents Chemother, 2008)
The source made the active and inactive calls. The rule behind the calls is not given here.

Tests used:
[1] = test system: Simian immunodeficiency virus; test: Antiretroviral activity against Simian immunodeficiency virus MAC 251 infected in human MT4 cells assessed as inhibition of virus-induced cytopathic effect by MTT assay; assay type: functional, organism-based; details: MAC 251, MT4
[2] = test system: Human immunodeficiency virus 1; test: Antiviral activity against Reverse transcriptase inhibitor-resistant Human immunodeficiency virus 1 infected in human MT4 cells assessed as inhibition of virus-induced cytopathic effect by MTT assay; assay type: functional, organism-based; details: Human immunodeficiency virus 1, MT4
[3] = test system: Human immunodeficiency virus 1; test: Antiretroviral activity against Human immunodeficiency virus 1 NL4.3 infected in human MT4 cells assessed as inhibition of virus-induced cytopathic effect by MTT assay; assay type: functional, organism-based; details: Human immunodeficiency virus 1, NL4.3, MT4
[4] = test system: Human immunodeficiency virus 1; test: Antiretroviral activity against Human immunodeficiency virus 1 3B infected in human MT4 cells assessed as inhibition of virus-induced cytopathic effect by MTT assay; assay type: functional, organism-based
[5] = test system: Human immunodeficiency virus 1; test: Antiviral activity against Protease inhibitor-resistant Human immunodeficiency virus 1 infected in human MT4 cells assessed as inhibition of virus-induced cytopathic effect by MTT assay; assay type: functional, organism-based; details: Human immunodeficiency virus 1, MT4
[6] = test system: Human immunodeficiency virus 2; test: Antiretroviral activity against Human immunodeficiency virus 2 ROD infected in human MT4 cells assessed as inhibition of virus-induced cytopathic effect by MTT assay; assay type: functional, organism-based; details: Human immunodeficiency virus 2, ISOLATE ROD
[7] = test system: Human immunodeficiency virus 2; test: Antiretroviral activity against Human immunodeficiency virus 2 EHO infected in human MT4 cells assessed as inhibition of virus-induced cytopathic effect by MTT assay; assay type: functional, organism-based
[8] = test system: Human immunodeficiency virus 1; test: Antiviral activity against non nucleoside reverse transcriptase inhibitor-resistant Human immunodeficiency virus 1 infected in human MT4 cells assessed as inhibition of virus-induced cytopathic effect by MTT assay; assay type: functional, organism-based; details: Human immunodeficiency virus 1, MT4
[9] = Intrinsic clearance in human liver microsome; assay type: ADME; details: liver microsomes
[10] = test system: Human immunodeficiency virus 1; test: Antiviral activity against X4 tropic Human immunodeficiency virus 1 3B infected in PMBC; assay type: functional, organism-based
[11] = test system: Human immunodeficiency virus 1; test: Antiviral activity against R5 tropic Human immunodeficiency virus 1 BAL infected in PMBC; assay type: functional, organism-based
[12] = test system: Human immunodeficiency virus 1; test: Antiviral activity against Human immunodeficiency virus 1 3B infected in human MT4 cells assessed as inhibition of viral replication; assay type: functional, organism-based
[13] = test system: Human immunodeficiency virus 1; test: Antiviral activity against Human immunodeficiency virus 1 infected in 293T cells assessed as inhibition of early cDNA synthesis by Lentiviral vector transduction assay; assay type: functional, organism-based
[14] = target: T1, Human immunodeficiency virus type 1 integrase (Human immunodeficiency virus 1, UniProt Q7ZJM1); test: Inhibition of Human immunodeficiency virus 1 integrase
T1 sequence (Q7ZJM1 whole entry): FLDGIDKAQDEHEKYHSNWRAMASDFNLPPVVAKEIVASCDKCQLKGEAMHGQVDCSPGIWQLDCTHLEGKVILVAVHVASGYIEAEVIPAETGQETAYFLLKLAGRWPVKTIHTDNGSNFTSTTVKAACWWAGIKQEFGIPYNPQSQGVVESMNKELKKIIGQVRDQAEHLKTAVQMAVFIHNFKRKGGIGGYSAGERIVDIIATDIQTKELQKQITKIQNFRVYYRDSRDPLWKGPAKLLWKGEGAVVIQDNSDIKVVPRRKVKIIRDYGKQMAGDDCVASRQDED

[15] = test system: Human immunodeficiency virus 1; test: Antiviral activity against Human immunodeficiency virus 1 during lentiviral transduction process assessed as inhibition of early cDNA synthesis by Lentiviral vector transduction assay; assay type: functional, organism-based
[16] = test system: Human immunodeficiency virus 1; test: Ratio of EC50 for Human immunodeficiency virus 1 3B after 70 passages to EC50 for wild-type Human immunodeficiency virus 1 3B; assay type: functional
[17] = Selectivity index, ratio of CC50 for human MT4 cells to EC50 for Human immunodeficiency virus 1 3B; assay type: toxicity, cell-based; details: read-out: Ratio CC50/EC50
[18] = test system: Human immunodeficiency virus 1; test: Antiviral activity against Human immunodeficiency virus 1 infected in 293T cells assessed as increase in amount of 2-LTR circles by Q-PCR in presence of 12.2 uM CHI/1043; assay type: functional, organism-based
[19] = test system: Human immunodeficiency virus 1; test: Antiviral activity against Human immunodeficiency virus 1 infected in 293T cells assessed as integrated proximal DNA by Q-PCR; assay type: functional, organism-based
[20] = Apparent permeability from apical to basolateral side of human Caco2 cells; assay type: ADME, cell-based; details: Caco-2
[21] = Cytotoxicity against human MT4 cells by MTT assay; assay type: cell-based
[22] = target: T1, Human immunodeficiency virus type 1 integrase; test: Inhibition of Human immunodeficiency virus 1 integrase strand transfer activity

`Cc1cn([C@H]2C[C@H](N=[N+]=[N-])[C@@H](CO)O2)c(=O)[nH]c1=O` [ZIDOVUDINE] gave an EC50 [1] of 11 nM, an EC50 [2] of 200 nM and an EC50 [3] of 21 nM. It also gave an EC50 [4] of 27 nM, an EC50 [5] of 26 nM and an EC50 [6] of 67 nM. The EC50 [7] was 56 nM and the EC50 [8] was 20 nM.

Work on `COc1cccc2c1c(C(=O)/C=C(\O)C(=O)O)cn2Cc1ccc(F)cc1` yielded a microsomal CLint [9] of 11 µL/min/mg, an EC50 [10] of 300 nM and an EC50 [1] of 4760 nM. It also gave an EC50 [2] of 860 nM, an EC50 [11] of 300 nM and an EC50 [3] of 730 nM. For the same compound, the EC50 [4] was 600 nM, the EC50 [12] was 600 nM and the inhibition [13] was “Active”. The IC50 [14] was 110 nM, the EC50 [5] was 680 nM and the EC50 [6] was 2110 nM. For the same compound, the inhibition [15] was “inactive”, the “Ratio EC50” value [16] was over 40 and the selectivity ratio [17] was 69.8. The EC50 [7] was 1760 nM, the EC50 [8] was 840 nM and the inhibition [18] was “inactive”. For the same compound, the inhibition [19] was “inactive” and the Papp A→B [20] was 5.5 ×10⁻⁶ cm/s.

For `COc1cccc2c(C(=O)/C=C(\O)C(=O)O)cn(Cc3ccc(F)cc3)c12`, the selectivity ratio [17] was 12.

Work on `O=C1Nc2ccc(Cl)cc2[C@@](C#CC2CC2)(C(F)(F)F)O1` [EFAVIRENZ] yielded an EC50 [1] of over 31700 nM, an EC50 [6] of over 31700 nM and an EC50 [7] of over 31700 nM.

With `CCOC(=O)/C(O)=C/C(=O)c1cn(Cc2ccc(F)cc2)c2c(OC)ccc(OC)c12` the selectivity ratio [17] was 20.

For `CCOC(=O)/C(O)=C/C(=O)c1cn(Cc2ccc(F)cc2)c2cccc(OC)c12`, the selectivity ratio [17] was 24.

Work on `CCOC(=O)/C(O)=C/C(=O)c1cn(Cc2ccc(F)cc2)c2ccc(OC)cc12` yielded a selectivity ratio [17] of 11.

With `COc1ccc(OC)c2c1c(C(=O)/C=C(\O)C(=O)O)cn2Cc1ccc(F)cc1` the selectivity ratio [17] was 100.

In the case of `COc1ccc2c(c1)c(C(=O)/C=C(\O)C(=O)O)cn2Cc1ccc(F)cc1`, the selectivity ratio [17] is reported as 12.

`O=C(O)/C(O)=C/C(=O)c1cn(Cc2ccccc2)c2ccccc12` gave a CC50 [21] of 64100 nM, an EC50 [12] of 8350 nM and an IC50 [14] of 860 nM. The IC50 [22] was 2330 nM and the selectivity ratio [17] was 8.

With `COc1cc2c(cc1Cc1cccc(Cl)c1F)c(=O)c(C(=O)O)cn2[C@H](CO)C(C)C` the EC50 [12] was 0.83 nM.

`Cc1c(O)cccc1C(=O)N[C@@H](CSc1ccccc1)[C@H](O)CN1C[C@H]2CCCC[C@H]2C[C@H]1C(=O)NC(C)(C)C` showed an EC50 [1] of 50 nM, an EC50 [2] of 29 nM and an EC50 [3] of 23 nM. It also gave an EC50 [4] of 28 nM, an EC50 [5] of 170 nM and an EC50 [6] of 50 nM. For the same compound, the EC50 [7] was 49 nM and the EC50 [8] was 35 nM.

Compound `O=C(O)C(=O)CC(=O)c1cc(OCc2ccccc2)cc(OCc2ccccc2)c1` has a CC50 [21] of 62000 nM, an EC50 [1] of 22600 nM and an EC50 [2] of 7200 nM. For the same compound, the EC50 [3] was 24500 nM, the EC50 [4] was 12400 nM and the EC50 [12] was 12400 nM. The EC50 [5] was 7400 nM, the EC50 [6] was 62100 nM and the selectivity ratio [17] was 5. It also gave an EC50 [8] of 19300 nM.

Work on `O=C(NCc1ccc(F)cc1)c1nc(N2CCCCS2(=O)=O)c2cccnc2c1O` yielded a CC50 [21] of 2250 nM, an EC50 [12] of 4.9 nM and an IC50 [14] of 2.3 nM. It also gave an IC50 [22] of 7 nM and a selectivity ratio [17] of 460.

`COc1ccc2c(C(=O)/C=C(\O)C(=O)O)cn(Cc3ccc(F)cc3)c2c1` showed a selectivity ratio [17] of 8.

For `Cc1nnc(C(=O)NC(C)(C)c2nc(C(=O)NCc3ccc(F)cc3)c(O)c(=O)n2C)o1`, the EC50 [12] was 1.4 nM.

`CCOC(=O)/C(O)=C/C(=O)c1cn(Cc2ccc(F)cc2)c2c(OC)cccc12` gave a selectivity ratio [17] of 1.

`CCOC(=O)/C(O)=C/C(=O)c1cn(Cc2ccc(F)cc2)c2cc(OC)ccc12` showed a selectivity ratio [17] of under 1.
